For 32 compounds, IC50 results are on record in patent publication US12673947B2 (Cytosinlab Therapeutics Co., Ltd., priority 2020, dated 2026).

pIC50: −log10 of the molar value.

For experiment [1], the system named is MV4;11 cells. The experiment can be described thus: MV4;11 in vitro inhibition of proliferation assay (CellTiter-Glo, 72 hours). As to conditions: Homo sapiens, MV4-11, 72 h, IC50 class, read-out: Inhibitory activity of cell proliferation MV4;11. It counts as cell-based. The source says:
Biological Test Example 2: MV4;11 In Vitro Inhibition of Proliferation Assay
The MV4;11 cell lines were purchased from the cell bank of the Chinese Academy of Sciences, IMDM medium (Gibco, catalog number 12440), fetal bovine serum (Gibco, catalog number 10099141C), penicillin-streptomycin antibiotics (Gibco, catalog number 15140122), DMSO (Sigma, catalog number D2650), Celltiter-Glo kit (CTG) (Promega, catalog number G7573), 384-well clear flat-bottom black cell culture plate (Corning, catalog number 3764), D300e digital dispenser (Tecan, catalog number D300e), SpectraMax i3x microplate reader (MOLECULAR DEVICES, catalog number i3x)
MV4;11 cell was cultivated in IMDM, 10% fetal bovine serum, 1% penicillin-streptomycin antibiotics, and cell density was kept less than 1.0*10E6 cells per ml to ensure that it was always in logarithmic growth phase. Cell viability was greater than 95%.
The compounds to be tested was diluted by 3 times from 10 uM with DMSO to 9 concentrations. 60 nl diluted compound was added to the cell culture plate and three duplicates were set up.
The prepared MV4;11 cell suspension was added to the 384-well plate, and 20 microliters of cell suspension was added per well, i.e., each well contained 2000 MV4;11 cells, of which the final concentration of DMSO was 0.3%. The cell culture plate was placed in 37° C. and incubated in a 5% carbon dioxide incubator for 72 hours.
20 μL of Promega CellTiter-Glo reagent was added to per well, and the plate was incubated at room temperature for 10 minutes when the luminescence signals were stable. SpectraMax i3x microplate reader was used to read signals.
The original data was converted into inhibition rate, and the IC50 value (half inhibition concentration) of the compound was determined by fitting the nonlinear four-parameter curve.
(ATP-based viability assays read luminescence as a measure of living cells.)

Experiment [2] has as its target T1, FLT3 (Homo sapiens, UniProt P36888).
T1 construct: purchased Carna 08-145
T1 sequence (P36888 27-993): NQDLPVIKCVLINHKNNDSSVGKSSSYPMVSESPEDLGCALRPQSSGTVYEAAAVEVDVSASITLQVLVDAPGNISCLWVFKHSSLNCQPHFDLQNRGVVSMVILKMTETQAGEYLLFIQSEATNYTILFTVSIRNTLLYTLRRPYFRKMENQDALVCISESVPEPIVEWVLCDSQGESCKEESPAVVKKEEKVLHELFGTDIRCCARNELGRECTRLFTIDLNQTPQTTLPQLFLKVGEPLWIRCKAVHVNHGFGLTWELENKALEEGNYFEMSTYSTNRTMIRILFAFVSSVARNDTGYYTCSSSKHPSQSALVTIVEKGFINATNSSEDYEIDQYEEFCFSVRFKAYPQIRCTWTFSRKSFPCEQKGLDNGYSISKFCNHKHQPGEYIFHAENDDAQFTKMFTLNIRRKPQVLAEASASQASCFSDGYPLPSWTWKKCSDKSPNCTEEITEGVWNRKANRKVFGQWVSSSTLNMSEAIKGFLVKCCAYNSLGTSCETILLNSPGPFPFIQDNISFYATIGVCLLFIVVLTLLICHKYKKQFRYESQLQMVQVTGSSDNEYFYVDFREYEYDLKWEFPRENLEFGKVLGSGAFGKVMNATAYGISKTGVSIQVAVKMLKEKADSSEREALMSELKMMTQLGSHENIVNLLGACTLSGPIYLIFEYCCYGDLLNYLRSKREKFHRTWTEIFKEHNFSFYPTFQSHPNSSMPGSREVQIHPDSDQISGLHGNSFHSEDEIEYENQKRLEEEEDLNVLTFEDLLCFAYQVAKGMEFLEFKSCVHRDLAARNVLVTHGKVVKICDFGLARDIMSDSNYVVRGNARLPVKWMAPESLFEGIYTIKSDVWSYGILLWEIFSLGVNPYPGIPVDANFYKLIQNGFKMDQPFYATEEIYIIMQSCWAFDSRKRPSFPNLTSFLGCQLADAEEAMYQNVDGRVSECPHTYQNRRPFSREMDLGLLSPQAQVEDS
The experiment can be described thus: FLT3 kinase in vitro inhibitory activity experiment (Caliper mobility shift, conversion rate). The experiment is classed as biochemical. As to conditions: IC50 class, read-out: Enzyme activity FLT3. Summed up:
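FLT3 was pre-incubated with compound for 10 min at room temperature, then the reaction was started with ATP plus Kinase substrate 2 and run 30 min at room temperature before stop solution. Substrate conversion was read by Caliper mobility shift.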

Regarding `CCc1nc2c(N)ncc(-c3cnn(C4CCN(C5CCN(C)CC5)CC4)c3)c2nc1NC1CCOCC1` [Compound 135], the pIC50 in experiment [1] was 7.00 to 8.00; in experiment [2], at least 8.00.

Take `CCc1nc2c(N)ncc(-c3cnn(C4CCN(C)CC4)c3)c2nc1NC1CCOCC1` [Compound 136]: the figures for the pIC50 in experiment [1] and in experiment [2] were 7.00 to 8.00 and at least 8.00, respectively.

In the case of `CCc1nc2c(N)ncc(-c3ccn(C)n3)c2nc1NC1CCOCC1` [Compound 138], the pIC50 in experiment [1] was under 6.30; in experiment [2], 6.30 to 7.00.

With `CCc1nc2c(N)ncc(-c3ccc(N4CCC(N5CCN(C)CC5)CC4)c(OC(F)F)c3)c2nc1NC1CCOCC1` [Compound 139], the pIC50 in experiment [1] was 7.00 to 8.00; in experiment [2], at least 8.00.

As to `CCc1nc2c(N)ncc(-c3cnn(CC4CCN(C5CCN(C)CC5)CC4)c3)c2nc1NC1CCOCC1` [Compound 155], the pIC50 was 7.00 to 8.00 in experiment [1] and at least 8.00 in experiment [2].

For `CCc1nc2c(N)ncc(-c3cnn(C4CCN(CCO)CC4)c3)c2nc1NC1CCOCC1` [Compound 156], the pIC50 is 7.00 to 8.00 in experiment [1] and at least 8.00 in experiment [2].

For the compound `CCc1nc2c(N)ncc(-c3cnn(C4CCN(CC5CCNCC5)CC4)c3)c2nc1NC1CCOCC1` [Compound 157], the figures for the pIC50 in experiment [1] and in experiment [2] were 7.00 to 8.00 and at least 8.00, respectively.

On to `CCc1nc2c(N)ncc(-c3cnn(C4CCN(CC5CCN(C)CC5)CC4)c3)c2nc1NC1CCOCC1` [Compound 158], for which the pIC50 is 7.00 to 8.00 in experiment [1] and at least 8.00 in experiment [2].

Take `CCc1nc2c(N)ncc(-c3cnn(C4CCN(C5CCNCC5)CC4)c3)c2nc1NC1CCOCC1` [Compound 160]: the values for the pIC50 in experiment [1] and in experiment [2] were 7.00 to 8.00 and at least 8.00, respectively.

`CCc1nc2c(N)ncc(-c3cnn(C4C[C@H]5CC[C@@H](C4)N5C(C)C)c3)c2nc1N[C@@H]1CC[C@H](O)C1` (stereo partly shown) [Compound 166]: the pIC50 in experiment [1] and in experiment [2] was at least 8.00 each time.

With `CCc1nc2c(N)ncc(-c3cnn(C4C[C@H]5CC[C@@H](C4)N5CC(C)C)c3)c2nc1N[C@@H]1CC[C@H](O)C1` (stereo partly shown) [Compound 167], the pIC50 in experiment [1] and in experiment [2] was at least 8.00 throughout.

`CCc1nc2c(N)ncc(-c3cnn(C4C[C@H]5CC[C@@H](C4)N5S(C)(=O)=O)c3)c2nc1N[C@@H]1CC[C@H](O)C1` (stereo partly shown) [Compound 168]: the pIC50 in experiment [1] and in experiment [2] was at least 8.00 each time.

For the compound `CCc1nc2c(N)ncc(-c3cnn(C4CC(C)(C)N(C)C(C)(C)C4)c3)c2nc1N[C@@H]1CC[C@H](O)C1` [Compound 169, (1S,3R)-3-((5-amino-3-ethyl-8-(1-(1,2,2,6,6-pentamethylpiperidine-4-yl)-1H-pyrazol-4-yl)pyridino[3,4-b]pyrazine-2-yl)amino)cyclopentan-1-ol], the pIC50 in experiment [1] and in experiment [2] was at least 8.00 each time.

Turning to `CCc1nc2c(N)ncc(-c3cnn(C4CCN(c5cccnc5)CC4)c3)c2nc1N[C@@H]1CC[C@H](O)C1` [Compound 170], the pIC50 in experiment [1] and in experiment [2] was at least 8.00 each time.

As to `CCc1nc2c(N)ncc(-c3cnn(C4CCN(c5ccnc(C)c5)CC4)c3)c2nc1N[C@@H]1CC[C@H](O)C1` [Compound 171], the pIC50 in experiment [1] and in experiment [2] was at least 8.00 in each case.

On to `CCc1nc2c(N)ncc(-c3cnn(C4CCN(c5ccncn5)CC4)c3)c2nc1N[C@@H]1CC[C@H](O)C1` [Compound 172], for which the pIC50 in experiment [1] and in experiment [2] was at least 8.00 throughout.

For the compound `CCc1nc2c(N)ncc(-c3cnn(C4CCN(c5ccnc(C)n5)CC4)c3)c2nc1N[C@@H]1CC[C@H](O)C1` [Compound 174], the pIC50 in experiment [1] and in experiment [2] was at least 8.00 each time.

Turning to `CCc1nc2c(N)ncc(-c3cnn(C4CCN(c5cccnn5)CC4)c3)c2nc1N[C@@H]1CC[C@H](O)C1` [Compound 175], the pIC50 in experiment [1] and in experiment [2] was at least 8.00 each time.

Turning to `CCc1nc2c(N)ncc(-c3cnn(-c4ccccc4)c3)c2nc1N[C@@H]1CC[C@H](O)C1` [Compound 176], the pIC50 in experiment [1] was 7.00 to 8.00; in experiment [2] it was at least 8.00.

As to `CCc1nc2c(N)ncc(-c3cnn(-c4ccc(C)nc4)c3)c2nc1N[C@@H]1CC[C@H](O)C1` [Compound 177, (1S,3R)-3-((5-amino-3-ethyl-8-(1-(6-methylpyridin-3-yl)-1H-pyrazol-4-yl)pyridino[3,4-b]pyrazin-2-yl)amino)cyclopentan-1-ol], the pIC50 in experiment [1] and in experiment [2] was at least 8.00 in each case.

`CCc1nc2c(N)ncc(-c3cnn(-c4ccc(F)cc4F)c3)c2nc1N[C@@H]1CC[C@H](O)C1` [Compound 178]: the pIC50 in experiment [1] and in experiment [2] was at least 8.00 throughout.

`CCc1nc2c(N)ncc(-c3cnn(-c4ccncn4)c3)c2nc1N[C@@H]1CC[C@H](O)C1` [Compound 179]: the pIC50 in experiment [1] and in experiment [2] was at least 8.00 each time.

As for `CCc1nc2c(N)ncc(-c3cnn(-c4ccnc(C)n4)c3)c2nc1N[C@@H]1CC[C@H](O)C1` [Compound 180, (1S,3R)-3-((5-amino-3-ethyl-8-(1-(2-methylpyrimidin-4-yl)-1H-pyrazol-4-yl)pyridino[3,4-b]pyrazin-2-yl)amino)cyclopentan-1-ol], the pIC50 in experiment [1] and in experiment [2] was at least 8.00 throughout.

With `CCc1nc2c(N)ncc(-c3cnn(C4CCN(CC(C)(C)O)CC4)c3)c2nc1N[C@@H]1CC[C@H](O)C1` [Compound 181], the pIC50 in experiment [1] and in experiment [2] was at least 8.00 in each case.

For `CCc1nc2c(N)ncc(-c3cnn(C4CCN(CC(C)C)CC4)c3)c2nc1N[C@@H]1CC[C@H](O)C1` [Compound 182], the pIC50 in experiment [1] and in experiment [2] was at least 8.00 each time.

Consider `CCc1nc2c(N)ncc(-c3cnn(C4CCN(C(C)CC)CC4)c3)c2nc1N[C@@H]1CC[C@H](O)C1` (stereo partly shown) [Compound 183], for which the pIC50 in experiment [1] and in experiment [2] was at least 8.00 each time.

Regarding `CCc1nc2c(N)ncc(-c3cnn(C4CCN(C(CC)CC)CC4)c3)c2nc1N[C@@H]1CC[C@H](O)C1` [Compound 184], the pIC50 in experiment [1] and in experiment [2] was at least 8.00 in each case.

On to `CCc1nc2c(N)ncc(-c3cnn(C4CCN(C(=O)C(C)C)CC4)c3)c2nc1N[C@@H]1CC[C@H](O)C1` [Compound 185, 1-(4-(4-(5-amino-3-ethyl-2-(((1R,3S)-3-hydroxycyclopentyl)amino)pyridino[3,4-b]pyrazin-8-yl)-1H-pyrazol-1-yl)piperidin-1-yl)-2-methylpropyl-1-one], for which the pIC50 in experiment [1] and in experiment [2] was at least 8.00 each time.

Turning to `CCc1nc2c(N)ncc(-c3cnn(C4CCN(S(C)(=O)=O)CC4)c3)c2nc1N[C@@H]1CC[C@H](O)C1` [Compound 186], the pIC50 in experiment [1] and in experiment [2] was at least 8.00 each time.

For the compound `CCc1nc2c(N)ncc(-c3cnn(C4CCN(S(=O)(=O)C(C)C)CC4)c3)c2nc1N[C@@H]1CC[C@H](O)C1` [Compound 187, (1S,3R)-3-((5-amino-3-ethyl-8-(1-(1-(isopropylsulfonyl)piperidin-4-yl)-1H-pyrazol-4-yl)pyridino[3,4b]pyrazin-2-yl)amino)cyclopentan-1-ol], the pIC50 in experiment [1] and in experiment [2] was at least 8.00 each time.

With `CCc1nc2c(N)ncc(-c3cnn(C4CCN(S(=O)(=O)CC(C)C)CC4)c3)c2nc1N[C@@H]1CC[C@H](O)C1` [Compound 188], the pIC50 in experiment [1] and in experiment [2] was at least 8.00 throughout.

As to `CCc1nc2c(N)ncc(-c3cnn(C4CCN(C(=O)NC(C)C)CC4)c3)c2nc1N[C@@H]1CC[C@H](O)C1` [Compound 189], the pIC50 in experiment [1] and in experiment [2] was at least 8.00 in each case.
